Data published in patent US20150031572A1, “MEANS AND METHODS FOR ASSESSING NEURONAL TOXICITY” (priority 2012, published 2015).
Where a name gives a salt, the structure may show the parent alone. Marks after values point to notes of the source that are not given here.

Test: Plasma metabolite profiling (GC-MS, LC-MS, SPE-LC-MS) of rats dosed once daily over 28 days; treatment ratios versus untreated control
Assay type: in vivo, rat
Settings: for 5-Oxoproline, plasma metabolite ratio versus control / Alanine, plasma metabolite ratio versus control / Arginine (second line of the table), plasma metabolite ratio versus control / Arginine, plasma metabolite ratio versus control / Citrulline, plasma metabolite ratio versus control / Glutamine, plasma metabolite ratio versus control / Proline, plasma metabolite ratio versus control / Tyrosine, plasma metabolite ratio versus control / Creatinine, ratio versus control: male rats; for 5-Oxoproline, plasma metabolite ratio versus control / Alanine, plasma metabolite ratio versus control / Arginine (second line of the table), plasma metabolite ratio versus control / Arginine, plasma metabolite ratio versus control / Citrulline, plasma metabolite ratio versus control / Glutamine, plasma metabolite ratio versus control / Proline, plasma metabolite ratio versus control / Tyrosine, plasma metabolite ratio versus control: high dose; for Creatinine, ratio versus control: Table 12a
In short: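 Male and female rats (5/sex/group) dosed once daily for 28 days; fasted anaesthetized animals bled retro-orbitally (EDTA plasma) on days 7, 14, 28, stored −80 °C under N2. Polar and lipid fractions profiled by GC-MS (derivatized), LC-MS/MRM; steroids by online SPE-LC-MS. Pool-normalized data; treatment ratios vs sex-matched controls, Welch test p-values.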

[1] = plasma, female rats, day 7, high dose, Table 5a
[2] = plasma, female rats, day 7, high dose, Table 5b
[3] = plasma, female rats, day 7, high dose, Table 6c
[4] = plasma, female rats, day 7, high dose, Table 6d
[5] = plasma, female rats, day 14, high dose, Table 5a
[6] = plasma, female rats, day 14, high dose, Table 5b
[7] = plasma, female rats, day 14, high dose, Table 6c
[8] = plasma, female rats, day 14, high dose, Table 6d
[9] = plasma, female rats, day 28, high dose, Table 5a
[10] = plasma, female rats, day 28, high dose, Table 5b
[11] = plasma, female rats, day 28, high dose, Table 6c
[12] = plasma, female rats, day 28, high dose, Table 6d
[13] = plasma, female rats, day 28, high dose, Table 6a
[14] = plasma, female rats, day 28, high dose, Table 6b
[15] = plasma, female rats, day 28, high dose, Table 8c
[16] = plasma, female rats, day 28, high dose, Table 8d

OCCOCCN1CCN(C2=Nc3ccccc3Sc3ccccc32)CC1 [Quetiapine fumarate]
3-Hydroxybutyrate, ratio versus control [1]: 1.49* | Histidine, ratio versus control [1]: 1.31* | Isoleucine, ratio versus control [1]: 1.9* | Leucine, ratio versus control [1]: 1.98* | Valine, ratio versus control [1]: 1.49* | 4-Hydroxy-3-methoxyphenylglycol (HMPG), ratio versus control [2]: 0.73* | Glucose, ratio versus control [2]: 0.94 | Lactate, ratio versus control [2]: 0.45* | Malate, ratio versus control [2]: 0.67* | Metanephrine, ratio versus control [2]: 0.55* | Pyruvate, ratio versus control [2]: 0.37* | Uric acid, ratio versus control [2]: 0.92 | 4-Hydroxysphinganine (t18:0, Phytosphingosine), total, ratio versus control [3]: 1.03 | Docosahexaenoic acid (C22:cis[4,7,10,13,16,19]6), ratio versus control [3]: 1.67* | Docosapentaenoic acid (C22:cis[7,10,13,16,19]5), ratio versus control [3]: 1.98* | Phosphatidylcholine (C16:0,C16:0), ratio versus control [3]: 1.11* | Phosphatidylcholine No 02, ratio versus control [3]: 1.05 | TAG (C16:0,C16:1), ratio versus control [3]: 2.83* | TAG (C16:0,C18:2), ratio versus control [3]: 2.65* | TAG (C18:2,C18:2), ratio versus control [3]: 1.99* | TAG (C18:2,C18:3), ratio versus control [3]: 1.83* | TAG (C18:3,C18:2,C18:1), ratio versus control [3]: 2.04* | TAG No 059, ratio versus control [3]: 2.1* | 4-Hydroxyphenylpyruvate, ratio versus control [4]: 0.61* | Glycine, ratio versus control [4]: 0.82* | Lactate, ratio versus control [4]: 0.45* | Lysophosphatidylcholine (C16:0), ratio versus control [4]: 0.97* | Uric acid, ratio versus control [4]: 0.92 | 3-Hydroxybutyrate, ratio versus control [5]: 1.55* | Leucine, ratio versus control [5]: 1.44* | Valine, ratio versus control [5]: 1.24* | 4-Hydroxy-3-methoxyphenylglycol (HMPG), ratio versus control [6]: 0.67* | Glucose, ratio versus control [6]: 0.87* | Lactate, ratio versus control [6]: 0.61* | Malate, ratio versus control [6]: 0.66* | Metanephrine, ratio versus control [6]: 0.26* | Pyruvate, ratio versus control [6]: 0.33* | Uric acid, ratio versus control [6]: 0.64* | Docosahexaenoic acid (C22:cis[4,7,10,13,16,19]6), ratio versus control [7]: 1.58* | Docosapentaenoic acid (C22:cis[7,10,13,16,19]5), ratio versus control [7]: 2.01* | Palmitic acid (C16:0), ratio versus control [7]: 1.24* | Phosphatidylcholine (C16:0,C16:0), ratio versus control [7]: 1.2* | TAG (C16:0,C16:1), ratio versus control [7]: 2.16* | TAG (C16:0,C18:1,C18:3), ratio versus control [7]: 1.52* | TAG (C16:0,C18:2), ratio versus control [7]: 1.82* | TAG (C18:2,C18:2), ratio versus control [7]: 1.5* | TAG (C18:3,C18:2,C18:1), ratio versus control [7]: 1.63* | TAG No 059, ratio versus control [7]: 2.21* | 4-Hydroxyphenylpyruvate, ratio versus control [8]: 0.62* | Glycine, ratio versus control [8]: 0.71* | Lactate, ratio versus control [8]: 0.61* | Lysophosphatidylcholine (C16:0), ratio versus control [8]: 0.98* | Uric acid, ratio versus control [8]: 0.64* | 3-Hydroxybutyrate, ratio versus control [9]: 2.04* | Galactose, lipid fraction, ratio versus control [9]: 1.21 | Glutamine, ratio versus control [9]: 1.31* | Isoleucine, ratio versus control [9]: 1.3* | Leucine, ratio versus control [9]: 1.27* | 4-Hydroxy-3-methoxyphenylglycol (HMPG), ratio versus control [10]: 0.8 | Glucose, ratio versus control [10]: 0.85* | Lactate, ratio versus control [10]: 0.46* | Malate, ratio versus control [10]: 0.55* | Metanephrine, ratio versus control [10]: 0.38* | Pyruvate, ratio versus control [10]: 0.36* | Uric acid, ratio versus control [10]: 0.68* | 4-Hydroxysphinganine (t18:0, Phytosphingosine), total, ratio versus control [11]: 1.12 | Docosahexaenoic acid (C22:cis[4,7,10,13,16,19]6), ratio versus control [11]: 1.24* | Docosapentaenoic acid (C22:cis[7,10,13,16,19]5), ratio versus control [11]: 1.76* | Galactose, lipid fraction, ratio versus control [11]: 1.21 | Phosphatidylcholine (C16:0,C16:0), ratio versus control [11]: 1.07 | Phosphatidylcholine (C16:0,C20:5), ratio versus control [11]: 1.1* | Phosphatidylcholine (C16:1,C18:2), ratio versus control [11]: 1.07 | Phosphatidylcholine No 02, ratio versus control [11]: 1.31* | TAG (C16:0,C16:1), ratio versus control [11]: 2.14* | TAG (C16:0,C18:1,C18:3), ratio versus control [11]: 2.06* | TAG (C16:0,C18:2), ratio versus control [11]: 1.84* | TAG (C18:2,C18:3), ratio versus control [11]: 1.93* | TAG (C18:3,C18:2,C18:1), ratio versus control [11]: 1.27* | TAG No 059, ratio versus control [11]: 1.48* | 4-Hydroxyphenylpyruvate, ratio versus control [12]: 0.36* | Glycine, ratio versus control [12]: 0.86* | Lactate, ratio versus control [12]: 0.46* | Lysophosphatidylcholine (C16:0), ratio versus control [12]: 0.97* | Uric acid, ratio versus control [12]: 0.68* | 4-Hydroxysphinganine (t18:0, Phytosphingosine), total, ratio versus control (rat, in vivo): 1.46* | Isoleucine, ratio versus control (rat, in vivo): 1.46* | Phosphatidylcholine No 02, ratio versus control (rat, in vivo): 1.17* | TAG (C16:0,C18:1,C18:3), ratio versus control (rat, in vivo): 1.41* | TAG (C18:2,C18:2), ratio versus control (rat, in vivo): 1.41* | TAG (C18:2,C18:3), ratio versus control (rat, in vivo): 1.37* | Valine, ratio versus control (rat, in vivo): 1.12*

C#CCN(C)[C@H](C)Cc1ccccc1 [Selegiline hydrochloride]
3-Methoxytyrosine, ratio versus control [13]: 1.38* | Isoleucine, ratio versus control [13]: 1.18* | 4-Hydroxy-3-methoxyphenylglycol (HMPG), ratio versus control [14]: 0.3* | 14-Methylhexadecanoic acid, ratio versus control [14]: 1.04 | 16-Methylheptadecanoic acid, ratio versus control [14]: 0.55* | 17-Methyloctadecanoic acid, ratio versus control [14]: 0.57* | Ceramide (d18:1,C24:1), ratio versus control [14]: 0.48* | Choline plasmalogen No 03, ratio versus control [14]: 0.82 | Homovanillic acid (HVA), ratio versus control [14]: 0.45* | Isopalmitic acid (C16:0), ratio versus control [14]: 0.69* | Lactate, ratio versus control [14]: 0.72* | Myristic acid (C14:0), ratio versus control [14]: 0.97 | Phosphatidylcholine (C16:0, C20:4), ratio versus control [14]: 0.94* | Phosphatidylcholine No 04, ratio versus control [14]: 0.84 | Pyruvate, ratio versus control [14]: 0.36* | 3-Hydroxybutyrate, ratio versus control [15]: 1.29 * | Isoleucine, ratio versus control [15]: 1.18 * | TAG (C16:0,C18:2), ratio versus control [15]: 1.81 * | 16-Methylheptadecanoic acid, ratio versus control [16]: 0.55 * | 17-Methyloctadecanoic acid, ratio versus control [16]: 0.57 * | Ceramide (d18:1,C24:1), ratio versus control [16]: 0.48 * | Phosphatidylcholine (C16:0, C20:4), ratio versus control [16]: 0.94 * | Phosphatidylcholine (C18:0, C20:3), ratio versus control [16]: 0.92 * | Pyruvate, ratio versus control [16]: 0.36 *

CC(=O)[O-].[Tl+] [Thallium(I) acetate]
5-Oxoproline, plasma metabolite ratio versus control (day 7 (m7)): 0.92 | Alanine, plasma metabolite ratio versus control (day 7 (m7)): 0.81 | Arginine (second line of the table), plasma metabolite ratio versus control (day 7 (m7)): 0.90 | Arginine, plasma metabolite ratio versus control (day 7 (m7)): 0.97 | Citrulline, plasma metabolite ratio versus control (day 7 (m7)): 0.84 | Glutamine, plasma metabolite ratio versus control (day 7 (m7)): 0.83 | Proline, plasma metabolite ratio versus control (day 7 (m7)): 0.85 | Tyrosine, plasma metabolite ratio versus control (day 7 (m7)): 0.82 | 5-Oxoproline, plasma metabolite ratio versus control (day 14 (m14)): 0.87 | Alanine, plasma metabolite ratio versus control (day 14 (m14)): 0.95 | Arginine (second line of the table), plasma metabolite ratio versus control (day 14 (m14)): 0.80 | Arginine, plasma metabolite ratio versus control (day 14 (m14)): 0.87 | Citrulline, plasma metabolite ratio versus control (day 14 (m14)): 0.84 | Glutamine, plasma metabolite ratio versus control (day 14 (m14)): 0.77 | Proline, plasma metabolite ratio versus control (day 14 (m14)): 0.80 | Tyrosine, plasma metabolite ratio versus control (day 14 (m14)): 0.90 | 5-Oxoproline, plasma metabolite ratio versus control (day 28 (m28)): 0.83 | Alanine, plasma metabolite ratio versus control (day 28 (m28)): 0.79 | Arginine (second line of the table), plasma metabolite ratio versus control (day 28 (m28)): 0.85 | Arginine, plasma metabolite ratio versus control (day 28 (m28)): 0.84 | Citrulline, plasma metabolite ratio versus control (day 28 (m28)): 0.94 | Glutamine, plasma metabolite ratio versus control (day 28 (m28)): 0.78 | Proline, plasma metabolite ratio versus control (day 28 (m28)): 0.85 | Tyrosine, plasma metabolite ratio versus control (day 28 (m28)): 0.87 | Creatinine, ratio versus control (plasma, day 7, high dose): 1.69 | Creatinine, ratio versus control (plasma, day 14, high dose): 1.50 | Creatinine, ratio versus control (plasma, day 28, high dose): 1.89
